Data from ChEMBL document CHEMBL1201862, “PubChem BioAssay data set” (2004).
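Five concentrations, 48 hours, 96-well plates. Here, GI50 denotes the concentration required for 50% inhibition of growth.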 The source made the active and inactive calls. Cut-off read from the data, not from the text of the source: active = GI50 up to about 1.1 µM and inactive = higher.

What was measured:
Assay in all cases: inhibition of tumour cell growth, NCI panel, 48 h
[1] = test system: UACC-62
[2] = test system: CCRF-CEM
[3] = test system: OVCAR-4
[4] = test system: NCI-H226
[5] = test system: MOLT-4
[6] = test system: SK-OV-3
[7] = test system: SNB-19
[8] = test system: TK-10
[9] = test system: CAKI-1
[10] = test system: SK-MEL-5
[11] = test system: XF498
[12] = test system: Hs-578T
[13] = test system: T47D
[14] = test system: OVCAR-3
[15] = test system: NCI/ADR-RES
[16] = test system: DU-145
[17] = test system: PC-3
[18] = test system: BT-549
[19] = test system: RXF 393
[20] = test system: MDA-MB-435

Structure (SMILES) | GI50 [1] | GI50 [2] | GI50 [3] | GI50 [4] | GI50 [5] | GI50 [6] | GI50 [7] | GI50 [8] | GI50 [9] | GI50 [10] | GI50 [11] | GI50 [12] | GI50 [13] | GI50 [14] | GI50 [15] | GI50 [16] | GI50 [17] | GI50 [18] | GI50 [19] | GI50 [20]
[O-][S+]1c2ccccc2N=C(c2ccc3ccccc3c2)CC1c1ccccc1 (stereo not given) | 36.6 µM (inactive) | 31.8 µM (inactive) | 20.2 µM (inactive) | 23.3 µM (inactive) | 31 µM (inactive) | 36.2 µM (inactive) | 17.9 µM (inactive) | 22.8 µM (inactive) | 25.1 µM (inactive) | 27.7 µM (inactive) | 23.9 µM (inactive) | – | – | – | – | – | – | – | – | –
Cc1cc(=O)oc2cc(OCC(O)COC(C)C)ccc12 (stereo not given) | > 100 µM (inactive) | > 100 µM (inactive) | 59.2 µM (inactive) | – | > 100 µM (inactive) | > 100 µM (inactive) | > 100 µM (inactive) | > 100 µM (inactive) | > 100 µM (inactive) | > 100 µM (inactive) | – | 97.1 µM (inactive) | > 100 µM (inactive) | > 100 µM (inactive) | > 100 µM (inactive) | > 100 µM (inactive) | > 100 µM (inactive) | – | – | –
CC(=O)O[C@H]1CC[C@H]2[C@@H]3CC[C@H]4Nc5c(cnn5S(C)(=O)=O)C[C@]4(C)[C@H]3CC[C@]12C | 33.7 µM (inactive) | 7.94 µM (inactive) | 18.5 µM (inactive) | 53.5 µM (inactive) | 47.9 µM (inactive) | 77.6 µM (inactive) | 36.7 µM (inactive) | – | 38.1 µM (inactive) | 84.3 µM (inactive) | – | 45.6 µM (inactive) | 37 µM (inactive) | 27.5 µM (inactive) | 87.1 µM (inactive) | > 100 µM (inactive) | 64.4 µM (inactive) | 27.5 µM (inactive) | > 100 µM (inactive) | > 100 µM (inactive)
COC(=O)Nc1nc2cc(C(=O)c3ccc[nH]3)ccc2[nH]1 | 0.425 µM (active) | 0.577 µM (active) | > 100 µM (inactive) | 1.16 µM (inactive) | 0.575 µM (active) | 2.03 µM (inactive) | 1.19 µM (inactive) | 1.67 µM (inactive) | 0.332 µM (active) | 0.282 µM (active) | – | 1.54 µM (inactive) | 0.959 µM (active) | – | 0.465 µM (active) | 1.82 µM (inactive) | 0.348 µM (active) | > 100 µM (inactive) | 0.0895 µM (active) | 0.117 µM (active)
SC1=NC2=C(CSC/C2=C\c2cccc(Br)c2)C(c2cccc(Br)c2)N1 (stereo not given) | > 100 µM (inactive) | 65.9 µM (inactive) | 93.5 µM (inactive) | > 100 µM (inactive) | 38.7 µM (inactive) | > 100 µM (inactive) | > 100 µM (inactive) | > 100 µM (inactive) | > 100 µM (inactive) | 30.3 µM (inactive) | – | > 100 µM (inactive) | 25 µM (inactive) | > 100 µM (inactive) | 61.9 µM (inactive) | > 100 µM (inactive) | 46.7 µM (inactive) | – | > 100 µM (inactive) | 41.3 µM (inactive)
CC12CCC([C@H](Nc3cc(C(F)(F)F)cc(C(F)(F)F)c3)C1=O)C2(C)C (stereo not given in full) | – | – | > 100 µM (inactive) | > 100 µM (inactive) | > 100 µM (inactive) | > 100 µM (inactive) | > 100 µM (inactive) | > 100 µM (inactive) | > 100 µM (inactive) | > 100 µM (inactive) | – | – | > 100 µM (inactive) | 16.8 µM (inactive) | > 100 µM (inactive) | > 100 µM (inactive) | > 100 µM (inactive) | > 100 µM (inactive) | 0.0162 µM (active) | > 100 µM (inactive)
Cc1cn(C2CC(O)C(CO[Si](C)(C)C(C)(C)C)OC2OC(C)C)c(=O)[nH]c1=O (stereo not given) | > 100 µM (inactive) | 36.1 µM (inactive) | 44.5 µM (inactive) | 41.9 µM (inactive) | – | – | 74.8 µM (inactive) | 39.5 µM (inactive) | 55.2 µM (inactive) | 32.7 µM (inactive) | – | 67.3 µM (inactive) | 72.3 µM (inactive) | 20.6 µM (inactive) | 43.1 µM (inactive) | > 100 µM (inactive) | 33.6 µM (inactive) | 44.9 µM (inactive) | 34 µM (inactive) | 60 µM (inactive)
O=S1(=O)C[C@@H](NCc2ccccc2)[C@H](NCc2ccccc2)C1 | > 100 µM (inactive) | > 100 µM (inactive) | > 100 µM (inactive) | > 100 µM (inactive) | > 100 µM (inactive) | > 100 µM (inactive) | > 100 µM (inactive) | > 100 µM (inactive) | > 100 µM (inactive) | > 100 µM (inactive) | – | > 100 µM (inactive) | > 100 µM (inactive) | > 100 µM (inactive) | > 100 µM (inactive) | > 100 µM (inactive) | > 100 µM (inactive) | > 100 µM (inactive) | > 100 µM (inactive) | > 100 µM (inactive)
CN1C2CCC1C(CO)C(=O)C2 (stereo not given) | > 100 µM (inactive) | 10.2 µM (inactive) | > 100 µM (inactive) | > 100 µM (inactive) | 18.2 µM (inactive) | > 100 µM (inactive) | – | 22.9 µM (inactive) | 32.7 µM (inactive) | > 100 µM (inactive) | – | > 100 µM (inactive) | 21 µM (inactive) | > 100 µM (inactive) | > 100 µM (inactive) | > 100 µM (inactive) | > 100 µM (inactive) | > 100 µM (inactive) | 57.4 µM (inactive) | > 100 µM (inactive)
CN1C2CC(=O)CC1[C@H](O)[C@@H]2O | – | > 100 µM (inactive) | – | > 100 µM (inactive) | > 100 µM (inactive) | – | > 100 µM (inactive) | > 100 µM (inactive) | – | – | – | – | > 100 µM (inactive) | > 100 µM (inactive) | > 100 µM (inactive) | > 100 µM (inactive) | > 100 µM (inactive) | > 100 µM (inactive) | > 100 µM (inactive) | > 100 µM (inactive)
CCOC(=O)C(=NN(C)c1ncccc1N)C(=O)OCC | > 100 µM (inactive) | 37.5 µM (inactive) | 97.3 µM (inactive) | 21.6 µM (inactive) | 21.5 µM (inactive) | > 100 µM (inactive) | > 100 µM (inactive) | 79.3 µM (inactive) | 33.3 µM (inactive) | 68.4 µM (inactive) | – | > 100 µM (inactive) | 25.9 µM (inactive) | 30.7 µM (inactive) | 53.3 µM (inactive) | > 100 µM (inactive) | 62.5 µM (inactive) | > 100 µM (inactive) | 84.9 µM (inactive) | 19.3 µM (inactive)
Cc1ccc(C)c(NC(=O)/C(=N\N)C(c2cnc3ccc([N+](=O)[O-])cc3n2)[N+](=O)[O-])c1 (stereo not given) | > 100 µM (inactive) | 4.99 µM (inactive) | 18.4 µM (inactive) | > 100 µM (inactive) | 54.5 µM (inactive) | 67.5 µM (inactive) | – | > 100 µM (inactive) | 39.4 µM (inactive) | 41.6 µM (inactive) | – | 80.4 µM (inactive) | 87.7 µM (inactive) | 61.1 µM (inactive) | 32.2 µM (inactive) | – | 50.7 µM (inactive) | > 100 µM (inactive) | > 100 µM (inactive) | 62.5 µM (inactive)
CCOC(=O)N1CCN(c2ccc3c(C)cc(C)nc3n2)CC1 | > 100 µM (inactive) | > 100 µM (inactive) | > 100 µM (inactive) | > 100 µM (inactive) | > 100 µM (inactive) | > 100 µM (inactive) | > 100 µM (inactive) | > 100 µM (inactive) | > 100 µM (inactive) | > 100 µM (inactive) | – | > 100 µM (inactive) | > 100 µM (inactive) | > 100 µM (inactive) | > 100 µM (inactive) | > 100 µM (inactive) | > 100 µM (inactive) | > 100 µM (inactive) | > 100 µM (inactive) | > 100 µM (inactive)
COc1ccc2ccc3oc(=O)c(C)cc3c2c1 | 10.9 µM (inactive) | > 100 µM (inactive) | > 100 µM (inactive) | > 100 µM (inactive) | > 100 µM (inactive) | – | > 100 µM (inactive) | > 100 µM (inactive) | > 100 µM (inactive) | > 100 µM (inactive) | – | 78 µM (inactive) | 43.3 µM (inactive) | > 100 µM (inactive) | > 100 µM (inactive) | > 100 µM (inactive) | > 100 µM (inactive) | > 100 µM (inactive) | > 100 µM (inactive) | > 100 µM (inactive)
CC/C=C/C(CC)C/C(C)=C\[C@]1(CC)C[C@H](CC)[C@H](CC(=O)O)OO1 (stereo not given in full) | 1.66 µM (inactive) | 0.105 µM (active) | – | 1.89 µM (inactive) | 0.151 µM (active) | 1.9 µM (inactive) | 1.82 µM (inactive) | – | 0.259 µM (active) | 1.27 µM (inactive) | – | 2.26 µM (inactive) | 1.34 µM (inactive) | 1.15 µM (inactive) | 0.453 µM (active) | 0.451 µM (active) | 0.366 µM (active) | – | – | 1.46 µM (inactive)
Cc1nc2c(cc1C(=O)N/N=C/c1ccc([N+](=O)[O-])cc1)c(=O)n(C)c(=O)n2C | > 100 µM (inactive) | > 100 µM (inactive) | > 100 µM (inactive) | 80.2 µM (inactive) | > 100 µM (inactive) | 39.4 µM (inactive) | 21.4 µM (inactive) | 54.3 µM (inactive) | 51.8 µM (inactive) | > 100 µM (inactive) | – | 31.1 µM (inactive) | 80.4 µM (inactive) | > 100 µM (inactive) | > 100 µM (inactive) | 94.6 µM (inactive) | > 100 µM (inactive) | 30.5 µM (inactive) | 18.6 µM (inactive) | > 100 µM (inactive)
